pIC50: −log10 of the molar value.
Columns and labels:
Type in all cases: biochemical
GSK-3α = GSK-3α (Homo sapiens, UniProt P49840); test: GSK-3 kinase assay (C1), GSK-3α; conditions: 1 μM ATP; for pIC50: read-out: C1 Score α
How it was run: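 Radiometric SPA at room temperature in 25 mM Tris pH 7.4 with 10 mM MgCl2, 1 mM DTT, 5.7 ng/μl GSK-3β or 0.25 ng/μl GSK-3α, 5 μM biotinylated CREB peptide and 1 μM ATP plus ^33P-ATP. Stopped after 1 h; IC50 from dose-response versus no-compound control, reported as pIC50 score bands.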

CDK1/cyclinB (h) = CDK1/cyclinB (h) (Homo sapiens, UniProt P06493); test: Kinase profiling C3.2 CDK1/cyclinB human; conditions: test concentration of 10^−6 M
How it was run: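 Radiometric filter-binding assay: human CDK1/cyclinB (5-10 mU) with 0.1 mg/ml histone H1 substrate and [γ-33P]ATP in 8 mM MOPS pH 7.0, 10 mM Mg acetate, 40 min at room temperature. Stopped with phosphoric acid; substrate-bound 33P counted on P30 filtermat by scintillation.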

CDK2/cyclinA (h) = CDK2/cyclinA (h) (Homo sapiens, UniProt P24941); test: Kinase profiling C3.3 CDK2/cyclinA human; conditions: test concentration of 10^−6 M
How it was run: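 Human CDK2/cyclinA (5-10 mU) phosphorylates 0.1 mg/ml histone H1 in 8 mM MOPS pH 7.0, EDTA, 10 mM Mg acetate with [γ-33P]ATP, 40 min at room temperature. After phosphoric acid stop, filter-bound 33P counted by scintillation.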

CDK3/cyclinE (h) = CDK3/cyclinE (h) (Homo sapiens, UniProt Q00526); test: Kinase profiling C3.5 CDK3/cyclinE human; conditions: test concentration of 10^−6 M
How it was run: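 Human CDK3/cyclinE (5-10 mU) phosphorylated 0.1 mg/ml histone H1 in 8 mM MOPS pH 7.0, 0.2 mM EDTA and 10 mM MgAcetate with [γ-33P]ATP. Reaction ran 40 min at room temperature and was stopped with phosphoric acid. Substrate-bound radioactivity was captured on P30 filtermat and measured by scintillation counting.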

CDK5/p35 human = CDK5/p35 human (Homo sapiens, UniProt Q00535); test: Kinase profiling C3.6 CDK5/p35 human; conditions: CDK5/p35, test concentration of 10^−6 M
How it was run: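 Radiometric filter-binding assay: human CDK5/p35 (5-10 mU) with 0.1 mg/ml histone H1 substrate in 8 mM MOPS pH 7.0, 0.2 mM EDTA, 10 mM Mg acetate and [γ-33P]ATP. Incubated 40 min at room temperature, stopped with phosphoric acid. Substrate 33P incorporation counted on P30 filtermat by scintillation.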

CDK7/cyclinH/MAT1 (h) = CDK7/cyclinH/MAT1 (h) (Homo sapiens, UniProt P50613); test: Kinase profiling C3.8 CDK7/cyclinH/MAT1 human; conditions: CDK7/cyclinH/MAT1, test concentration of 10^−6 M
How it was run: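 Human CDK7/cyclinH/MAT1 (5-10 mU) incubated 40 min at room temperature in 8 mM MOPS pH 7.0, 0.2 mM EDTA, 10 mM Mg acetate, 500 μM peptide substrate and [γ-^33P]ATP. Stopped with phosphoric acid; substrate phosphorylation measured by filter binding and scintillation counting.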

GSK-3α, sequence (P49840 whole entry, species assumed): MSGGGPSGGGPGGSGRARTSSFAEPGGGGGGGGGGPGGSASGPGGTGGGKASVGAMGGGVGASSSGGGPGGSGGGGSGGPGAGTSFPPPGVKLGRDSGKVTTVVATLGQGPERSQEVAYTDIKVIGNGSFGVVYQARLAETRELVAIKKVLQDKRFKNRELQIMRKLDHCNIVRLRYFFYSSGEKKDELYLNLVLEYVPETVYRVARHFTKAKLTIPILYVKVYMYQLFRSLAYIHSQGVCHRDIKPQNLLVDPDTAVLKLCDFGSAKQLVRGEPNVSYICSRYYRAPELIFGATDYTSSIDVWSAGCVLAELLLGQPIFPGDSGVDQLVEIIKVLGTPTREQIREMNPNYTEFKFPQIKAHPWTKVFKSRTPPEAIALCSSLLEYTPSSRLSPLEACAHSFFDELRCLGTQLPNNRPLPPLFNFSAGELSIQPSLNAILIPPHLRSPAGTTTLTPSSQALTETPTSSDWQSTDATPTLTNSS
CDK5/p35 human, sequence (Q00535 whole entry): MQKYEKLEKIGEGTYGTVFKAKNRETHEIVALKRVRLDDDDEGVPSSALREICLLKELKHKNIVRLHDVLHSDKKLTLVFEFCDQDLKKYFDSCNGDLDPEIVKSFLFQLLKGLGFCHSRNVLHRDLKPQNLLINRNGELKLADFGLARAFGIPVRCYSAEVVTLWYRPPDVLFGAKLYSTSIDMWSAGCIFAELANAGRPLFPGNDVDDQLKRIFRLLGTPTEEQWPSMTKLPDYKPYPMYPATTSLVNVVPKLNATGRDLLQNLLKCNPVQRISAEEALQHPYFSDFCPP
CDK5/p35 human, sequence (Q15078 whole entry partner): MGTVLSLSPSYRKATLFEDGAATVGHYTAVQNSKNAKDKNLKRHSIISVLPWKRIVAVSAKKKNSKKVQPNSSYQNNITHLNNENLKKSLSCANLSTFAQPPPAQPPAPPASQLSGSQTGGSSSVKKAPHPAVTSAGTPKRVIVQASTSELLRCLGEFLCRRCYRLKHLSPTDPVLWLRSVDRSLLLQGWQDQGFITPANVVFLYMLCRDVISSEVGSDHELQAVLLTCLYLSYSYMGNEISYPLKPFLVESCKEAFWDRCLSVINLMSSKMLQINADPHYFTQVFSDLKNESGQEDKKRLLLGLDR
CDK3/cyclinE (h), sequence (Q00526 whole entry): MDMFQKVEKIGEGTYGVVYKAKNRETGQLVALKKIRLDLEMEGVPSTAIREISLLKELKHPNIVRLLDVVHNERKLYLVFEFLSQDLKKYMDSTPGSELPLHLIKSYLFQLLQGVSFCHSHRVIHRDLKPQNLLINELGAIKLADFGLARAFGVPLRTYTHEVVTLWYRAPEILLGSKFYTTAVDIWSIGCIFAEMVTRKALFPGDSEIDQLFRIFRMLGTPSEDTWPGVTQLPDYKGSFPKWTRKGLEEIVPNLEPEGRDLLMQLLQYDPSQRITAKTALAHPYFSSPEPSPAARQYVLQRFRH
CDK3/cyclinE (h), sequence (P24864 whole entry partner): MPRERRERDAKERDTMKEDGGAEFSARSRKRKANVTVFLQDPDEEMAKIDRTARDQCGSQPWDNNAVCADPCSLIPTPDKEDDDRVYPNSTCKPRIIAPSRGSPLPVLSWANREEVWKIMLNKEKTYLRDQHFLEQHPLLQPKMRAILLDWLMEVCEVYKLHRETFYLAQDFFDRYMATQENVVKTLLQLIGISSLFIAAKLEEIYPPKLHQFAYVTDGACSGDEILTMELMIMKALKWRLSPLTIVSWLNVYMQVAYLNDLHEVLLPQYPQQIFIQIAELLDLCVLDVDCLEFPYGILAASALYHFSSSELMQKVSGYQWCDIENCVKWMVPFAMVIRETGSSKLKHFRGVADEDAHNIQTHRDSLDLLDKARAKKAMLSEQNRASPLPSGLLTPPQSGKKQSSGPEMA
CDK1/cyclinB (h), sequence (P06493 whole entry): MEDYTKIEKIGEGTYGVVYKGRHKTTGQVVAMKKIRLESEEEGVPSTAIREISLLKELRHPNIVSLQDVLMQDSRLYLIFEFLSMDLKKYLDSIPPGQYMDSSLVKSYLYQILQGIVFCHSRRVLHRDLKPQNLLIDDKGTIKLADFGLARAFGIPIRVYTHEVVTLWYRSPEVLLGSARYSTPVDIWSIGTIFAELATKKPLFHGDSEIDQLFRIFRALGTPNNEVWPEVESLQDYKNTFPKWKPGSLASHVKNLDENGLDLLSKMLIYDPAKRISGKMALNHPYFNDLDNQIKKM
CDK1/cyclinB (h), sequence (P14635 whole entry partner): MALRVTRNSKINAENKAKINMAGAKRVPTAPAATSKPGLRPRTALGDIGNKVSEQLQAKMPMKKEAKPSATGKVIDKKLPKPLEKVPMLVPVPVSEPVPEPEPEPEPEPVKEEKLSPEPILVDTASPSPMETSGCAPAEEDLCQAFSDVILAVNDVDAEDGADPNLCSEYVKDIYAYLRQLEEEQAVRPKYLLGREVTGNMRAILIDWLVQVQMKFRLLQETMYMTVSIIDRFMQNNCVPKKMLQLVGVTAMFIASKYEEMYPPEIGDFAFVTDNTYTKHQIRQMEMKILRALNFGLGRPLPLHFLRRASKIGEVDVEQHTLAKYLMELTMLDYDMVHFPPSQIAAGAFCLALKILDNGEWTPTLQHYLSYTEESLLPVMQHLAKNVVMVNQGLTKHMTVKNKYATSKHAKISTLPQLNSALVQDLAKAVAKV
CDK7/cyclinH/MAT1 (h), sequence (P50613 whole entry): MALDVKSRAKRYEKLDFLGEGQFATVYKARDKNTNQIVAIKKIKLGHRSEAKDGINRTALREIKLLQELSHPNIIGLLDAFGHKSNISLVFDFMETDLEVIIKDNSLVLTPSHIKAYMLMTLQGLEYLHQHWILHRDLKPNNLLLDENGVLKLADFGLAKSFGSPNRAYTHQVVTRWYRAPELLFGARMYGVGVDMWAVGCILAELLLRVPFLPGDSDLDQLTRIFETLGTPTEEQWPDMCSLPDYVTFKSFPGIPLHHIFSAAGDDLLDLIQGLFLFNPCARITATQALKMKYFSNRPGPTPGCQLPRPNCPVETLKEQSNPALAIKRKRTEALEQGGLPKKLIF
CDK7/cyclinH/MAT1 (h), sequence (P51946 whole entry partner): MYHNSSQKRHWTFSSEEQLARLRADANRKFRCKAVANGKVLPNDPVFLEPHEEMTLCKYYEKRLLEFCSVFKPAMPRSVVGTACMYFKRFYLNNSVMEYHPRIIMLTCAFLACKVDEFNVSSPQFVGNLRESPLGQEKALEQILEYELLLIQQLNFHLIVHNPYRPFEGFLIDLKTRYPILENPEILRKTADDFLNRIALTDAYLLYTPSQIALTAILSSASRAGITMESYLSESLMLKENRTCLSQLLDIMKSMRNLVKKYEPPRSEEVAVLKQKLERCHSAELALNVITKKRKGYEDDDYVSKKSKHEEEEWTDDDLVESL
CDK7/cyclinH/MAT1 (h), sequence (P51948 whole entry partner): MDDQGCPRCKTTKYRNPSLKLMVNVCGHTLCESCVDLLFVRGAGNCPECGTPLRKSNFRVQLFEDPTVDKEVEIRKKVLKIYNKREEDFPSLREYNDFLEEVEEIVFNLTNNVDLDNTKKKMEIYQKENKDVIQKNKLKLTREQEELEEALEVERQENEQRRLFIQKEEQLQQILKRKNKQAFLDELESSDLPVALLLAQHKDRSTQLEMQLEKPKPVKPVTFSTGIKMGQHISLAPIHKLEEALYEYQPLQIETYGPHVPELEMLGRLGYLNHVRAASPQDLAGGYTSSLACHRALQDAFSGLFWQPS

| Structure (SMILES) | pIC50 (GSK-3α) | C3.2 score (CDK1/cyclinB (h)) | C3.3 score (CDK2/cyclinA (h)) | C3.5 score (CDK3/cyclinE (h)) | C3.6 score (CDK5/p35 human) | C3.8 score (CDK7/cyclinH/MAT1 (h)) | C1 Score α (GSK-3α) |
| --- | --- | --- | --- | --- | --- | --- | --- |
| CN1CC(=O)NCC#Cc2cc(ccn2)-c2ncnc(n2)Nc2cccc(c2)C1 [Compound 1] | > 8.00 | 4 (Score 4 = >80% inhibition) | 4 (Score 4 = >80% inhibition) | 4 (Score 4 = >80% inhibition) | 4 (Score 4 = >80% inhibition) | 4 (Score 4 = >80% inhibition) |  |
| CN1CC(=O)NC/C(Cl)=C/c2cc(ccn2)-c2ncnc(n2)Nc2cccc(c2)C1 [Compound 2] | > 8.00 | 4 (Score 4 = >80% inhibition) | 4 (Score 4 = >80% inhibition) | 4 (Score 4 = >80% inhibition) | 4 (Score 4 = >80% inhibition) | 3 (Score 3 = 60-80% inhibition) |  |
| CN1CCC(=O)NCCCc2cc(ccn2)-c2ncnc(n2)Nc2cccc(c2)C1 [Compound 3] | 6.00 to 7.00 | 4 (Score 4 = >80% inhibition) | 4 (Score 4 = >80% inhibition) | 3 (Score 3 = 60-80% inhibition) | 3 (Score 3 = 60-80% inhibition) | 4 (Score 4 = >80% inhibition) |  |
| CN1CCCc2cc(ccn2)-c2ncnc(n2)Nc2cccc(c2)CNC(=O)C1 [Compound 7] | > 8.00 | 4 (Score 4 = >80% inhibition) | 4 (Score 4 = >80% inhibition) | 4 (Score 4 = >80% inhibition) | 4 (Score 4 = >80% inhibition) | 2 (Score 2 = 30-60% inhibition) |  |
| CN1CC(=O)NCCCc2cc(ccn2)-c2ncnc(n2)Nc2cccc(c2)C1 [Compound 8] |  | 4 (Score 4 = >80% inhibition) | 4 (Score 4 = >80% inhibition) | 4 (Score 4 = >80% inhibition) | 3 (Score 3 = 60-80% inhibition) | 2 (Score 2 = 30-60% inhibition) | 4 (Score 4=pIC50 value>8) |
| O=C1CN2CCN(CC2)Cc2cccc(c2)Nc2ncnc(n2)-c2ccnc(c2)CCCN1 [Compound 9] |  | 4 (Score 4 = >80% inhibition) | 4 (Score 4 = >80% inhibition) | 3 (Score 3 = 60-80% inhibition) | 2 (Score 2 = 30-60% inhibition) | 2 (Score 2 = 30-60% inhibition) | 4 (Score 4=pIC50 value>8) |
| CN1CC(=O)NCCCc2cc(ccn2)-c2ncnc(n2)Nc2cccc(c2)C1 [Compound 10] | > 8.00 | 4 (Score 4 = >80% inhibition) | 4 (Score 4 = >80% inhibition) | 4 (Score 4 = >80% inhibition) | 4 (Score 4 = >80% inhibition) | 4 (Score 4 = >80% inhibition) |  |
| CN1CCN(CCN2CCC(=O)NCCCc3cc(ccn3)-c3ncnc(n3)Nc3cccc(c3)C2)CC1 [Compound 11] | 6.00 to 7.00 | 1 (Score 1 = 10-30% inhibition) | 1 (Score 1 = 10-30% inhibition) | 1 (Score 1 = 10-30% inhibition) | 1 (Score 1 = 10-30% inhibition) | 1 (Score 1 = 10-30% inhibition) |  |
| O=C1NCCCc2cc(ccn2)-c2ncnc(n2)Nc2cccc(c2)CN2CCCC12 (stereo not drawn) [Compound 12] | 6.00 to 7.00 | 3 (Score 3 = 60-80% inhibition) | 4 (Score 4 = >80% inhibition) | 3 (Score 3 = 60-80% inhibition) | 2 (Score 2 = 30-60% inhibition) | 3 (Score 3 = 60-80% inhibition) |  |
| CN1CCCC(=O)NCCCc2cc(ccn2)-c2ncnc(n2)Nc2cccc(c2)C1 [Compound 13] | 6.00 to 7.00 | 1 (Score 1 = 10-30% inhibition) | 2 (Score 2 = 30-60% inhibition) | 2 (Score 2 = 30-60% inhibition) | 1 (Score 1 = 10-30% inhibition) | 2 (Score 2 = 30-60% inhibition) |  |

From US8778919B2, “Cyclic anilino—pyridinotriazines” (Janssen Pharmaceutica NV, priority 2005, dated 2014)
